# Values of other authors as cited in patent publication US5496703A, “Indirect immunoassay for dioxinlike compounds” (priority 1993, dated 1996).
# Where two headings read alike, the source gives them in different places.
# Key:
# Ah receptor = details: cited from earlier work
# AHH [1] = details: responsive C57BL/6J inbred mouse strain; cited from earlier work
# AHH [2] = details: nonresponsive DBA/2 inbred mouse strain; cited from earlier work
Structure (SMILES),binding affinity to Ah receptor (Ah receptor),AHH induction (AHH [1]),AHH induction (AHH [2])
Cc1ccc2cc3c(ccc4ccccc43)c3c2c1CC3 [3-methylcholanthrene],high affinity,capable of inducing AHH activity,not in the nonresponsive DBA/2 inbred mouse strain
c1ccc2c(c1)cc1ccc3cccc4ccc2c1c34 [benzo[a]pyrene],high affinity,,
